Measurements as given in patent publication US9725490B2, “ERAP1-derived peptide and use thereof” (TOKUSHIMA UNIVERSITY, priority 2011, dated 2017).

Legend:
Assay type in all cases: cell-based, human
[1] = system: PHB2/REA localization in MCF-7 cells; assay: Nuclear translocation of PHB2/REA (fractionation, immunoblotting, immunostaining); settings: for nuclear translocation of PHB2/REA, temporal: 1 hour to 24 hours after administration
Description: FIG. 3-1 is a diagram illustrating that ERAP1-peptide treatment promotes nuclear translocation of PHB2. […] MCF-7 cells were stimulated for 24 hours with 10 μM ERAP1-peptide and/or 10 nM E2. The cells were fractioned into mitochondria, cytoplasm, and nuclear fractions by specific gravity centrifugation. Then, each fraction was subjected to immunoblotting analysis using an anti-ERAP1 antibody and an anti-PHB2 antibody. PRDX3, α/β-Tublin (Tublin) and lamin B are markers for mitochondria, cytoplasm, and nuclear fractions, respectively (upper panel). The protein content of each fraction was evaluated with Coomassie-stained SDS-PAGE gel (lower panel). […] KPL-3C cells were treated for 24 hours with 10 μM HA-tagged ERAP1-peptide and/or 10 nM E2. Then, the cells were fractionated into cytoplasm and nuclear fractions by specific gravity centrifugation. Then, which fraction was immunoprecipitated with anti-ERα antibody, an anti-ERAP1 antibody or an anti-PHB2 antibody. Then, immunoblotting was performed with each antibody shown in the figure (an anti-ERAP1 antibody, an anti-ERα antibody, an anti-PHB2 antibody and an anti-HA antibody (Peptide)). α/β-Tubulin (Tubulin) and Lamin B are markers for cytoplasm and nuclear fractions, respectively.
FIG. 4-1 is a diagram illustrating that the ERAP1-peptide promotes nuclear translocation of PHB2. (A) The upper panel illustrates representative images of stained immune cells, showing the intracellular localization of PHB2. MCF-7 cells were treated with 10 μM ERAP1-peptide or ERAP1-scramble peptide. Subsequently, the cells were treated with 10 nM E2. After the immobilization, the cells were subjected to immunofluorescent staining using an anti-PHB2 antibody and DAPI (for discriminating the nucleus).
FIG. 4-2 is a diagram illustrating that the ERAP1-peptide promotes nuclear translocation of PHB2. (B) is a diagram illustrating the results of immunoblotting analysis by which the intracellular localization of PHB2 was detected, MCF-7 cells were treated with the ERAP1-peptide or the ERAP1-scramble peptide. Subsequently immediately, the cells were treated with 10 nM E2. The cells were fractionated into cytoplasm and nuclear fractions after 1 hour or 24 hours. Each fraction was immunoprecipitated with anti-ERα antibody, an anti-ERAP1 antibody or a PH82 antibody. […]
MCF-7 cells were seeded in an 8-well chamber (Laboratory-Tek II Chamber Slide System, Nalgen Nunc International, Naperville, Ill., USA) in 5×10^4 cells/well, and cultured under estrogen-free condition for 24 hours. […] The fluorescence image was obtained under Olympus IX71 microscope (Tokyo, Japan). […]

ERα = ERα down-regulation and polyubiquitination in MCF-7 cells
Description: FIG. 4-5 is a diagram illustrating that the ERAP1-peptide promotes nuclear translocation of PHB2. […] Then, the protein level and the mRNA level for the expression of ERα were obtained by Western blotting (the upper panel: Protein) and semi-quantitative RT-PCR (the lower panel: mRNA), respectively. β-actin is a loading control for each. […] MCF-7 cells were treated with the ERAP1-peptide and/or E2 in the presence of 1 μM MG-132 for 1 hour. Then, the cell lysate was immunoprecipitated with anti-ERα antibody.
Down-regulation of ERα was evaluated by semi-quantitative reverse transcription PCR. Complete RNA was extracted using RNeasy Mini purification kit (Qiagen) from E2-treated cells in the presence or in the absence of the ERAP1 peptide, and reverse-transcribed into cDNA using Superscript II reverse transcriptase (Invitrogen), oligo dT primer (nvitrogen) and 25 mM dNTP Mixture (Invitrogen). mRNAs of ERα and β-actin were measured with GeneAmp PCR system (Applied Biosystems, Foster, Calif., USA). The primers are as described below: […]

[2] = system: ERα interaction with IGF-1Rβ and Shc; assay: E2-independent non-genomic activation route via IGF-1Rβ, MCF-7; settings: 10 μM, 24 hours, cytoplasm fraction
Description: FIG. 15 is a diagram illustrating the effects of the ERAP1-peptide on E2-independent cell functions. […] MCF-7 cells were treated with the ERAP1-peptide in each concentration (1, 3, 5 and 10 μM) or 10 nM tamoxifen as a positive control for 24 hours. […] MCF-7 cells were stimulated with 10 μM ERAP1-peptide treatment only, 10 nM E2 treatment only, or 10 μM ERAP1-peptide treatment and immediately 10 nM E2 for 24 hours, and the cytoplasm fraction was isolated from each of the treated cells. Then, the cytoplasm fraction was immunoprecipitated with anti-ERα antibody. Furthermore, with respect to the obtained sample, Western blotting analysis was performed using the antibodies shown in the figure.
MCF-7 cells were subjected to a treatment of 10 μM ERAP1-peptide alone, stimulation with 10 nM E2 alone, and co-stimulation with the ERAP1 peptide and E2, respectively, and after 24 hours, the cytoplasm fraction was isolated from the cells of each treatment. The cytoplasm fraction was precleaned using normal IgG and rec-Protein G Sepharose 4B (Zymed, San Francisco, Calif., USA) at 4° C. for 3 hours, and centrifuged, and then the supernatant was incubated in the presence of anti-ERα antibody at 4° C. for 6 hours. Then, the supernatant was added with rec-Protein G Sepharose 4B and incubated at 4° C. for 1 hour whereby to precipitate an antigen-antibody complex. […]

Row | Compound | nuclear translocation of PHB2/REA, temporal [1] | translocation of PHB2/REA from the cytoplasm into the nucleus ([1]; E2 and peptide at the same time, 10 μM, 24 hours) | decrease in the protein level of ERα after estrogen (ERα; MCF-7) | polyubiquitination of ERα (ERα; MCF-7, E2, in the presence of MG132) | interaction of IGF-1Rβ and Shc with ERα, absence of E2 [2]
1 | CSCC[C@H](NC(=O)[C@H](CCC(N)=O)NC(=O)[C@H](CCCNC(=N)N)NC(=O)[C@H](CCCNC(=N)N)NC(=O)[C@H](CCCNC(=N)N)NC(=O)[C@H](CCCNC(=N)N)NC(=O)[C@H](CCCNC(=N)N)NC(=O)[C@H](CCCNC(=N)N)NC(=O)[C@H](CCCNC(=N)N)NC(=O)[C@H](CCCNC(=N)N)NC(=O)[C@H](CCCNC(=N)N)NC(=O)[C@H](CCCNC(=N)N)NC(=O)[C@@H](N)CCCNC(=N)N)C(=O)N[C@@H](CC(C)C)C(=O)N[C@@H](CO)C(=O)N[C@@H](CC(=O)O)C(=O)N[C@@H](CC(C)C)C(=O)N[C@H](C(=O)N[C@@H](CC(C)C)C(=O)N[C@@H](CCC(N)=O)C(=O)N[C@@H](CC(C)C)C(=O)N[C@@H](CCCNC(=N)N)C(=O)N[C@@H](CCC(N)=O)C(=O)N[C@@H](CCCNC(=N)N)C(=O)O)[C@@H](C)O [ERAP1-peptide] | Prompt nuclear translocation of inherent PHB2/REA at 1 hour | remarkable translocation of PHB2/REA from the cytoplasm into the nucleus | the decrease thereof was suppressed | polyubiquitination of ERα was inhibited | each interaction of IGF-1Rβ and Shc, and ERα was inhibited
2 | DRQLQLSTLQRML (SEQ ID NO: 28) (ERAP1-scramble peptide) [reference compound] | not recognized | – | – | – | –
